# Source: patent publication US20030186967A1, “Acylresorcinol derivatives are selective vitronectin receptor inhibitors” (American Home Products Corporation, priority 1998, published 2003)
# Molecular target: T1, Vitronectin receptor αVβ3 (Homo sapiens, UniProt P05106+P06756)
# T1 construct: expressed in transfected cells; host or cells: 512P5 cells (plasma membrane preparation)
# Assay: Vitronectin Receptor αVβ3 Binding Assay
# Conditions: read-out: VnR (IC50μM)
# T1 sequence (P06756 31-889 limits assumed): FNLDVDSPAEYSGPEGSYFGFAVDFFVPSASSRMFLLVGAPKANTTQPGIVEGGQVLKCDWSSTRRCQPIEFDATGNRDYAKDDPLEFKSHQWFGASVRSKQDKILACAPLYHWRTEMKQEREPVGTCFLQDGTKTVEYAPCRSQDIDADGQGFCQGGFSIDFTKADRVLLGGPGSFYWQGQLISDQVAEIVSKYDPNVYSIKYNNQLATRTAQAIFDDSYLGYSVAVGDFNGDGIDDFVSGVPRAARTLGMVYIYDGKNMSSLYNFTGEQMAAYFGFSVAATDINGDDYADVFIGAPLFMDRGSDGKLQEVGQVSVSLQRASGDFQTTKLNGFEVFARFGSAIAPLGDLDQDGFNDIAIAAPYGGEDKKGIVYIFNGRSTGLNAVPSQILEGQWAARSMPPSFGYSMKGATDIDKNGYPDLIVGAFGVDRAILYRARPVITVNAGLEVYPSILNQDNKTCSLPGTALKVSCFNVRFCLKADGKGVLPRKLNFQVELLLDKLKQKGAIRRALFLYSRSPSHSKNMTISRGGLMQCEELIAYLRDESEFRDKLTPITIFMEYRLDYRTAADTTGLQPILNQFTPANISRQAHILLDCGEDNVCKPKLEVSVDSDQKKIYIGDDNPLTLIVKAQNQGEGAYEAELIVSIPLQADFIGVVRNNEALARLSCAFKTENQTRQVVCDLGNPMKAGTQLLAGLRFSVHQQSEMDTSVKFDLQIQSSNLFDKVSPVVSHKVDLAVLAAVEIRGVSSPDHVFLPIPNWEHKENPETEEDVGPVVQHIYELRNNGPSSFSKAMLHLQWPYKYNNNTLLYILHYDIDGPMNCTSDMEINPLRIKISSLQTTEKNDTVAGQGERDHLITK
# T1 sequence (P06756 891-1048 partner limits assumed): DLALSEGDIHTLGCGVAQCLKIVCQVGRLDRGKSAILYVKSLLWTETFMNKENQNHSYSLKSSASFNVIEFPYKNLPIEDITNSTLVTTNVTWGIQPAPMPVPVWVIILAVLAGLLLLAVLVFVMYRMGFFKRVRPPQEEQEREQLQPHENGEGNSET
# T1 sequence (P05106 27-788): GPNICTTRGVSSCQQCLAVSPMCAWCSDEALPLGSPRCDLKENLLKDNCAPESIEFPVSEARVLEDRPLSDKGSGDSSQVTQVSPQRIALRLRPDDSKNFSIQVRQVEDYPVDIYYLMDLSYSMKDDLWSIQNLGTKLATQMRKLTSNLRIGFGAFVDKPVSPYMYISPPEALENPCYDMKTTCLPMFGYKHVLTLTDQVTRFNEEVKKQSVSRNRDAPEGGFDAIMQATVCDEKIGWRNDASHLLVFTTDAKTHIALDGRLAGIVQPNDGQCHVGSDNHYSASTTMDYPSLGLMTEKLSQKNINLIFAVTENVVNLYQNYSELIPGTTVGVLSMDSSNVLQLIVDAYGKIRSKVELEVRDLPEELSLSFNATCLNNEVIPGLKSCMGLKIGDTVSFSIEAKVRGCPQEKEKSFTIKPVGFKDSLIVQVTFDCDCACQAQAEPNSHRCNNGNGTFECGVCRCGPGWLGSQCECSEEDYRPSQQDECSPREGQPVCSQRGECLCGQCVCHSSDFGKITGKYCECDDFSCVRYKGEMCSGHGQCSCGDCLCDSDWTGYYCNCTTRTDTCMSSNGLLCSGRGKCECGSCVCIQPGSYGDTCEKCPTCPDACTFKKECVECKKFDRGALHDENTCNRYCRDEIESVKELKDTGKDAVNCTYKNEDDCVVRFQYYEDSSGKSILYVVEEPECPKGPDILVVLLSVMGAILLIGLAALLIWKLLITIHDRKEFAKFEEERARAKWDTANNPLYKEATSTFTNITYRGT
row,SMILES,IC50 [µM]
1,"C=CCOC(=O)N[C@@H](CNC(=O)c1ccc(OCCNC(=O)NCc2ccccc2)cc1O)C(=O)O [Example 225, (2S)-2-{[(allyloxy)carbonyl]amino}-3-{[4-(2-{[(benzylamino)carbonyl]amino}-ethoxy)-2-hydroxybenzoyl]amino}propanoic acid]",5
2,"C=CCCOC(=O)N[C@@H](CNC(=O)c1ccc(OCCNC(=O)NCc2ccccc2)cc1O)C(=O)O [Example 226, (2S)-3-{[4-(2-{[(benzylamino)carbonyl]amino}ethoxy)-2-hydroxybenzoyl]amino}-2-{[(but-3-enyloxy)carbonyl]amino}propanoic acid]",5.2
3,"C#CCOC(=O)N[C@@H](CNC(=O)c1ccc(OCCNC(=O)NCc2ccccc2)cc1O)C(=O)O [Example 227, (2S)-3-{[4-(2-{[(benzylamino)carbonyl]amino}ethoxy)-2-hydroxybenzoyl]amino}-2-{[(prop-2-ynyloxy)carbonyl]amino}propanoic acid]",5.1
4,"CCCCCCOC(=O)N[C@@H](CNC(=O)c1ccc(OCCNC(=O)NCc2ccccc2)cc1O)C(=O)O [Example 228, (2S)-3-{[4-(2-{[(benzylamino)carbonyl]amino}ethoxy)-2-hydroxybenzoyl]amino}-2-{[(hexyloxy)carbonyl]amino}propanoic acid]",10.2
5,"CCCCCCCCOC(=O)N[C@@H](CNC(=O)c1ccc(OCCNC(=O)NCc2ccccc2)cc1O)C(=O)O [Example 229, (2S)-3-{[4-(2-{[(benzylamino)carbonyl]amino}ethoxy)-2-hydroxybenzoyl]amino}-2-{[(octyloxy)carbonyl]amino}propanoic acid]",17.1
6,"O=C(NCCOc1ccc(C(=O)NC[C@H](NC(=O)OCC(Cl)(Cl)Cl)C(=O)O)c(O)c1)NCc1ccccc1 [Example 230, (2S)-3-{[4-(2-{[(benzylamino)carbonyl]amino}ethoxy)-2-hydroxybenzoyl]amino}-2-{[(2,2,2-trichloroethoxy)carbonyl]amino}propanoic acid]",4
7,"CCCCOC(=O)N[C@@H](CNC(=O)c1ccc(OCCNC(=O)NCc2ccccc2)cc1O)C(=O)O [Example 231, (2S)-3-{[4-(2-{[(benzylamino)carbonyl]amino}ethoxy)-2-hydroxybenzoyl]amino}-2-[(butoxycarbonyl)amino]propanoic acid]",6.7
8,"CC(C)COC(=O)N[C@@H](CNC(=O)c1ccc(OCCNC(=O)NCc2ccccc2)cc1O)C(=O)O [Example 232, (2S)-3-{[4-(2-{[(benzylamino)carbonyl]amino}ethoxy)-2-hydroxybenzoyl]amino}-2-[(isobutoxycarbonyl)amino]propanoic acid]",3.7
9,O=C(NCCOc1ccc(C(=O)NC[C@H](NC(=O)OCc2ccccc2)C(=O)O)c(O)c1)NCc1cccnc1 [Example 233],3.3
10,"COC(=O)N[C@@H](CNC(=O)c1ccc(OCCNC(=O)NCc2cccnc2)cc1O)C(=O)O [Example 234, (2S)-3-({2-hydroxy-4-[2-({[(pyridin-3-ylmethyl)amino]carbonyl}-amino)ethoxy]-benzoyl}amino)-2-[(methoxycarbonyl)amino]propanoic acid]",8.7
11,"CCOC(=O)N[C@@H](CNC(=O)c1ccc(OCCNC(=O)NCc2cccnc2)cc1O)C(=O)O [Example 235, (2S)-2-[(ethoxycarbonyl)amino]-3-({2-hydroxy-4-[2-({[(pyridin-3-ylmethyl)amino]-carbonyl}amino)ethoxy]benzoyl}amino)propanoic acid]",3
12,CCCOC(=O)N[C@@H](CNC(=O)c1ccc(OCCNC(=O)NCc2cccnc2)cc1O)C(=O)O [Example 236],1.9
13,"CC(C)OC(=O)N[C@@H](CNC(=O)c1ccc(OCCNC(=O)NCc2cccnc2)cc1O)C(=O)O [Example 237, (2S)-3-({2-hydroxy-4-[2-({[(pyridin-3-ylmethyl)amino]carbonyl}-amino)ethoxy]-benzoyl}amino)-2-[(isopropoxycarbonyl)amino]propanoic acid]",2.7
14,"C=CCCOC(=O)N[C@@H](CNC(=O)c1ccc(OCCNC(=O)NCc2cccnc2)cc1O)C(=O)O [Example 239, (2S)-2-{[(but-3-enyloxy)carbonyl]amino}-3-({2-hydroxy-4-[2-({[(pyridin-3-ylmethyl)amino]carbonyl}amino)ethoxy]benzoyl}amino)propanoic acid]",2.1
15,"CCCCCCOC(=O)N[C@@H](CNC(=O)c1ccc(OCCNC(=O)NCc2cccnc2)cc1O)C(=O)O [Example 241, (2S)-2-{[(hexyloxy)carbonyl]amino}-3-({2-hydroxy-4-[2-({[(pyridin-3-ylmethyl)-amino]carbonyl}amino)ethoxy]benzoyl}amino)propanoic acid]",4.1
16,"CCCCCCCCOC(=O)N[C@@H](CNC(=O)c1ccc(OCCNC(=O)NCc2cccnc2)cc1O)C(=O)O [Example 242, (2S)-3-({2-hydroxy-4-[2-({[(pyridin-3-ylmethyl)amino]carbonyl}-amino)ethoxy]-benzoyl}amino)-2-{[(octyloxy)carbonyl]amino}propanoic acid]",7.9
17,"CC(C)(C)COC(=O)N[C@@H](CNC(=O)c1ccc(OCCNC(=O)NCc2cccnc2)cc1O)C(=O)O [Example 243, (2S)-3-({2-hydroxy-4-[2-({[(pyridin-3-ylmethyl)amino]carbonyl}-amino)ethoxy]-benzoyl}amino)-2-{[(neopentyloxy)carbonyl]amino}propanoic acid]",0.69
18,"O=C(NCCOc1ccc(C(=O)NC[C@H](NC(=O)OCC(Cl)(Cl)Cl)C(=O)O)c(O)c1)NCc1cccnc1 [Example 244, (2S)-3-({2-hydroxy-4-[2-({[(pyridin-3-ylmethyl)amino]carbonyl}amino)-ethoxy]benzoyl}amino)-2-{[(2,2,2-trichloroethoxy)carbonyl]amino}propanoic acid]",1.6
19,"CC(C)COC(=O)N[C@@H](CNC(=O)c1ccc(OCCNC(=O)NCc2cccnc2)cc1O)C(=O)O [Example 246, (2S)-3-({2-hydroxy-4-[2-({[(pyridin-3-ylmethyl)amino]carbonyl}-amino)ethoxy]-benzoyl}amino)-2-[(isobutoxycarbonyl)amino]propanoic acid]",1.6
20,"O=C(NCCOc1ccc(C(=O)NC[C@H](NC(=O)OCc2ccccc2)C(=O)O)c(O)c1)NCc1ccncc1 [Example 247, (2S)-2-{[(benzyloxy)carbonyl]amino}-3-({2-hydroxy-4-[2-({[(pyridin-4-ylmethyl)amino]carbonyl}amino)ethoxy]benzoyl}amino)propanoic acid]",5.5
21,"CCCCCCOC(=O)N[C@@H](CNC(=O)c1ccc(OCCNC(=O)NCc2ccncc2)cc1O)C(=O)O [Example 255, (2S)-2-{[(hexyloxy)carbonyl]amino}-3-({2-hydroxy-4-[2-({[(pyridin-4-ylmethyl)amino]carbonyl}amino)ethoxy]benzoyl}amino)propanoic acid]",5.31
22,"CCCCCCCCOC(=O)N[C@@H](CNC(=O)c1ccc(OCCNC(=O)NCc2ccncc2)cc1O)C(=O)O [Example 256, (2S)-3-({2-hydroxy-4-[2-({[(pyridin-4-ylmethyl)amino]carbonyl}-amino)ethoxy]-benzoyl}amino)-2-{[(octyloxy)carbonyl]amino}propanoic acid]",9.08
23,"CC(C)(C)COC(=O)N[C@@H](CNC(=O)c1ccc(OCCNC(=O)NCc2ccncc2)cc1O)C(=O)O [Example 257, (2S)-3-({2-hydroxy-4-[2-({[(pyridin-4-ylmethyl)amino]carbonyl}-amino)ethoxy]-benzoyl}amino)-2-{[(neopentyloxy)carbonyl]amino}propanoic acid]",1.26
24,"O=C(NCCOc1ccc(C(=O)NC[C@H](NC(=O)OCC(Cl)(Cl)Cl)C(=O)O)c(O)c1)NCc1ccncc1 [Example 258, (2S)-3-({2-hydroxy-4-[2-({[(pyridin-4-ylmethyl)amino]carbonyl}amino)-ethoxy]-benzoyl}amino)-2-{[(2,2,2-trichloroethoxy)carbonyl]amino}propanoic acid]",4.31
25,"Cc1ccc(CNC(=O)NCCOc2ccc(C(=O)NC[C@H](NC(=O)OCc3ccccc3)C(=O)O)c(O)c2)cc1 [Example 261, (2S)-2-{[(benzyloxy)carbonyl]amino}-3-({2-hydroxy-4-[2-({[(4-methylbenzyl)-amino]carbonyl}amino)ethoxy]benzoyl}amino)propanoic acid]",20.2
26,"COc1ccc(CNC(=O)NCCOc2ccc(C(=O)NC[C@H](NC(=O)OCc3ccccc3)C(=O)O)c(O)c2)cc1 [Example 262, (2S)-2-{[(benzyloxy)carbonyl]amino}-3-({2-hydroxy-4-[2-({[(4-methoxybenzyl)-amino]carbonyl}amino)ethoxy]benzoyl}amino)propanoic acid]",12.6
27,"O=C(NCCOc1ccc(C(=O)NC[C@H](NC(=O)OCc2ccccc2)C(=O)O)c(O)c1)NCc1ccc(Cl)cc1 [Example 263, (2S)-2-{[(benzyloxy)carbonyl]amino}-3-({4-[2-({[(4-chlorobenzyl)amino]-carbonyl}-amino)ethoxy]-2-hydroxybenzoyl}amino)propanoic acid]",29
28,"CN(C)c1ccc(CNC(=O)NCCOc2ccc(C(=O)NC[C@H](NC(=O)OCc3ccccc3)C(=O)O)c(O)c2)cc1 [Example 264, (2S)-2-{[(benzyloxy)carbonyl]amino}-3-[(4-{2-[({[4-(dimethylamino)benzyl]-amino}carbonyl)amino]ethoxy}-2-hydroxybenzoyl)amino]propanoic acid]",59.3
29,"NS(=O)(=O)c1ccc(CNC(=O)NCCOc2ccc(C(=O)NC[C@H](NC(=O)OCc3ccccc3)C(=O)O)c(O)c2)cc1 [Example 265, (2S)-3-[(4-{2-[({[4-(aminosulfonyl)benzyl]amino}carbonyl)amino]ethoxy}-2-hydroxybenzoyl)amino]-2-{[(benzyloxy)carbonyl]amino}propanoic acid]",12.9
30,"O=C(NCCOc1ccc(C(=O)NC[C@H](NC(=O)OCc2ccccc2)C(=O)O)c(O)c1)NCc1ccc(OC(F)(F)F)cc1 [Example 266, (2S)-2-{[(benzyloxy)carbonyl]amino}-3-[(2-hydroxy-4-{2-[({[4-(trifluoromethoxy)-benzyl]amino}carbonyl)amino]ethoxy}benzoyl)amino]propanoic acid]",29.6
